Reference: patent US20260250519A1, “Copper Containing Compounds and Compositions for Antimicrobial Paint and Coating” (ARXADA, LLC, priority 2022, published 2026)
Entries after “also recorded” stand apart in the source; their conditions may differ.

Assays:
[1] = Compatibility of copper compounds in flat wall paint, visual assessment of dry film for grits; type: physicochemical; conditions: 600 ppm Cu in acrylic flat wall paint; dry film inspected for grits
Method: The compatibilities of copper compounds in paint were evaluated via visual assessment of dry film appearance of a flat wall paint (50% PVC, 35% Solid Vol, 45 g/L VOC, Table 1).

[2] = tested on: Aspergillus niger (ATCC 6275), Aureobasidium pullulans (ATCC 9348) and Penicillium citrinum (ATCC 9849); experiment: ASTM resistance to growth of mold on interior coatings in an environmental chamber; type: cell-based; conditions: for Avg Rating: 4 weeks in chamber; for antifungal test pass/fail: Pass = rating 8-10 (Table 9)
Method: Two coatings were brushed onto both faces and all edges of wood panel (allowing 1 day between coats). The resulting coated panels were dried at 23±2° C. and 50±5% relative humidity for 4 days. […] In the environmental chamber, the dried coated panels were hung vertically with the bottom approximately 3 inch above the surface of the inoculated soil and with sufficient spacing to allow free circulation of air and to prevent contact between panels or with wall surfaces. […] The degrees of fungal contamination were assessed using the rating scale in Table 9.

[3] = cited from earlier work
[4] = tested on: Escherichia coli (ATCC 8739); experiment: Modified JIS Z2801 antibacterial efficacy in dry paint film (μBCC, ZnO); type: cell-based; conditions: ZnO 0 ppm in flat wall paint; for 2 hr Contact Time % ↓ / 2 hr Contact Time Log10 ↓: relative to blank paint
Method: (§1) In brief, μBCC dispersion and optional ZnO dispersion (25 wt %) were added into a flat wall paint (50% PVC, 35% Solid Vol, 45 g/L VOC, Table 1) for target Cu and ZnO level, respectively. The paints were brushed onto the sterilized plastic filter paper. Each side of the filter paper was painted twice and the resulting coated paper was dried at ambient condition for 3 days. The dried coatings were then leached against 10 L water for 24 hours (4 water changes for the first 8 hour). Each of three (3) bacterial inoculum (0.4 mL): Escherichia coli (ATCC 8739), Staphylococcus aureus (ATCC 6538), Pseudomonas aeruginosa (ATCC 15442) was used to inoculate the dry film (40 mm×40 mm) of test paint to achieve 1.0 to 4.0×10^5 cfm/mL of inoculum concentration per each bacteria on dry surface of each test paint. The test paints were incubated at 35±1° C. and 90% relative humidity (RH) for 2 hour. The degrees of bacterial contamination of all samples were determined relative to blank paint via viable cell count of bacteria by agar plate culture method.

[5] = tested on: Pseudomonas aeruginosa (ATCC 15442); experiment: as above; type: cell-based; conditions: ZnO 0 ppm in flat wall paint; for 2 hr Contact Time % ↓ / 2 hr Contact Time Log10 ↓: relative to blank paint
Method: as §1

[6] = tested on: Staphylococcus aureus (ATCC 6538); experiment: as above; type: cell-based; conditions: ZnO 0 ppm in flat wall paint; for 2 hr Contact Time % ↓ / 2 hr Contact Time Log10 ↓: relative to blank paint
Method: as §1

[7] = tested on: Pseudomonas aeruginosa (ATCC 15442); experiment: Interim EPA method for antimicrobial surface coatings, flat wall paint; type: cell-based; conditions: 1670 ppm in flat wall paint
Method: (§2) The antibacterial efficacies of copper-containing composition in dry paint film were evaluated using an interim EPA method (Interim Method for Evaluating the Efficacy of Antimicrobial Surface Coatings: Oct. 2, 2020). In brief, μBCC dispersion was added into a flat wall paint (38% Solid Vol, <50 g/L VOC) for target Cu level. The paints were drawn-down onto the sterilized steel substrate (1 inch by 1 inch of AISI type 304 stainless steel). The resulting coated substrate was dried at ambient condition for at least 24 hours. Each of two (2) bacterial inoculum ([…]): Staphylococcus aureus (ATCC 6538) and Pseudomonas aeruginosa (ATCC 15442) was used to inoculate the dry film of test paint to achieve 10^4 to 10^5 cfm/carrier of each bacteria on dry surface of each test paint. The test paints were incubated at 22° C. and 30-40% RH for 2 hours. The degrees of bacterial contamination were determined via viable cell count for antibacterial efficacy relative to the uncoated substrate.

[8] = tested on: Staphylococcus aureus (ATCC 6538); experiment: as above; type: cell-based; conditions: Cu 1670 ppm in flat wall paint
Method: as §2

[9] = tested on: Escherichia coli (ATCC 8739); experiment: Modified JIS Z2801, increased inoculum, Quat-containing matte wall paint; type: cell-based; conditions: Quat 5200 ppm, Cu 0 ppm in matte wall paint
Method: (§3) The antibacterial efficacies of copper-containing composition in dry paint film were evaluated using a modified JIS Z2801 method (Antimicrobial Product-Test for Antimicrobial Activity and Efficacy: 2000) by reducing contact time from 24 hour to 2 hour, including Pseudomonas aeruginosa as an additional bacteria and increasing inoculum strength to 5.0 to 10.0×10^7 cfm/mL. […] The paints were brushed onto the sterilized plastic filter paper. Each side of the filter paper was painted twice and the resulting coated paper was dried at ambient condition for 3 days. The dried coatings were then leached against 10 L water for 24 hours (4 water changes for the first 8 hour). Each of three (3) bacterial inoculum (0.4 mL): Escherichia coli (ATCC 8739), Staphylococcus aureus (ATCC 6538), Pseudomonas aeruginosa (ATCC 15442) was used to inoculate the dry film (40 mm×40 mm) of test paint to achieve 5.0 to 10.0×10^7 cfm/mL of inoculum concentration per each bacteria on dry surface of each test paint. The test paints were incubated at 35±1° C. and 90% RH for 2 hour. The degrees of bacterial contamination were determined relative to blank paint via viable cell count of bacteria by agar plate culture method.

[10] = tested on: Pseudomonas aeruginosa (ATCC 15442); experiment: as above; type: cell-based; conditions: Quat 5200 ppm, Cu 0 ppm in matte wall paint
Method: as §3

[11] = tested on: Staphylococcus aureus (ATCC 6538); experiment: as above; type: cell-based; conditions: Quat 5200 ppm, Cu 0 ppm in matte wall paint
Method: as §3

[12] = tested on: Pseudomonas aeruginosa (ATCC 15442); experiment: Interim EPA method with dry and chemical abrasion, Quat-containing matte wall paint; type: cell-based; conditions: Quat 5200 ppm, Cu 0 ppm; for 2 hr Contact Time % ↓ / 2 hr Contact Time Log10 ↓: relative to uncoated substrate
Method: (§4) The antibacterial efficacies of copper-containing composition in dry paint film were evaluated using an interim EPA method (Interim Method for Evaluating the Efficacy of Antimicrobial Surface Coatings: Oct. 2, 2020). […] The paints were drawn-down onto the sterilized steel substrate (1 inch by 1 inch of AISI type 304 stainless steel). The resulting coated substrate was dried at ambient condition for at least 24 hours. Some of the dried coated substrates were further subject to dry and chemical abrasion for 1 week residual efficacy claim. As for dry abrasion, the coated substrate was exposed to 10 cycles of dry abrasion by a Scotch Brite Non-Scratch Scrub Sponge using a BYK Gardner-Scrub machine, each of which comprises 16 single passes. As for chemical abrasion, the scrub sponge was soaked in sodium hypochlorite (2000 ppm NaOCl) solution and EPA-registered Quat-containing Nugen™ MB^5N-256 (256× dilution) disinfectant prior to the abrasion. The coated substrate was exposed to 10 cycles of chemical abrasion by the soaked scrub sponge, each of which comprises 8 single passes. After rinsing and drying to remove the residual NaOCl and Quat, each of two (2) bacterial inoculum ([…]): Staphylococcus aureus (ATCC 6538) and Pseudomonas aeruginosa (ATCC 15442) was used to inoculate the dry film of test paint to achieve 10^4 to 10^5 cfm/carrier of bacteria on dry surface of each test paint. The test paints were incubated at 22° C. and 30-40% RH for 2 hours. The degrees of bacterial contamination were determined via viable cell count for antibacterial efficacy relative to the uncoated substrate.

[13] = tested on: Staphylococcus aureus (ATCC 6538); experiment: as above; type: cell-based; conditions: Quat 5200 ppm, Cu 0 ppm; for 2 hr Contact Time % ↓ / 2 hr Contact Time Log10 ↓: relative to uncoated substrate
Method: as §4

[14] = no Cu additive, Quat level 2000 ppm

## O=S(=O)([O-])[O-].[Cu+2] [CuSO4, copper sulfate, reference compound]
[1]
  Compatibilities of Copper Compounds in Paint: Incompatible (many grits)

## CCCCCCCCCCCCN(C)C [Lauryl Dimethyl Amine, reference compound]
[2]; [14]
  Avg Rating: 2.7

## On1ccccc1=S.On1ccccc1=S.[Cu] [copper pyrithione]
[3]
  solubility: 0.03 µg/mL

## O=C([O-])[O-].[Cu+2].[Cu+2].[OH-].[OH-] [μBCC, Micronized basic copper carbonate]
[1]
  Compatibilities of Copper Compounds in Paint: compatible; also recorded: Compatible (no grits)
[4]; Cu 165 ppm
  2 hr Contact Time Avg: <5.7E+01
  2 hr Contact Time Log10: <1.75
  2 hr Contact Time % ↓: ≥99.920%
  2 hr Contact Time Log10 ↓: ≥3.10
[4]; Cu 330 ppm
  2 hr Contact Time Avg: <1.0E+01
  2 hr Contact Time Log10: <1.00
  2 hr Contact Time % ↓: ≥99.986%
  2 hr Contact Time Log10 ↓: ≥3.85
[4]; Cu 824 ppm
  2 hr Contact Time Avg: <4.0E+01
  2 hr Contact Time Log10: <1.60
  2 hr Contact Time % ↓: ≥99.944%
  2 hr Contact Time Log10 ↓: ≥3.25
[4]; Cu 1650 ppm
  2 hr Contact Time Avg: <1.0E+01
  2 hr Contact Time Log10: <1.00
  2 hr Contact Time % ↓: ≥99.986%
  2 hr Contact Time Log10 ↓: ≥3.85
[5]; Cu 165 ppm
  2 hr Contact Time Avg: 1.2E+03
  2 hr Contact Time Log10: 3.08
  2 hr Contact Time % ↓: 93.632%
  2 hr Contact Time Log10 ↓: 1.20
[5]; Cu 330 ppm
  2 hr Contact Time Avg: 1.3E+03
  2 hr Contact Time Log10: 3.13
  2 hr Contact Time % ↓: 92.912%
  2 hr Contact Time Log10 ↓: 1.15
[5]; Cu 824 ppm
  2 hr Contact Time Avg: <4.7E+01
  2 hr Contact Time Log10: <1.67
  2 hr Contact Time % ↓: ≥99.754%
  2 hr Contact Time Log10 ↓: ≥2.61
[5]; Cu 1650 ppm
  2 hr Contact Time Avg: 2.7E+01
  2 hr Contact Time Log10: 1.43
  2 hr Contact Time % ↓: 99.860%
  2 hr Contact Time Log10 ↓: 2.85
[6]; Cu 165 ppm
  2 hr Contact Time Avg: 6.3E+01
  2 hr Contact Time Log10: 1.80
  2 hr Contact Time % ↓: 99.936%
  2 hr Contact Time Log10 ↓: 3.20
[6]; Cu 330 ppm
  2 hr Contact Time Avg: <2.0E+01
  2 hr Contact Time Log10: <1.30
  2 hr Contact Time % ↓: ≥99.980%
  2 hr Contact Time Log10 ↓: ≥3.70
[6]; Cu 824 ppm
  2 hr Contact Time Avg: <4.0E+01
  2 hr Contact Time Log10: <1.60
  2 hr Contact Time % ↓: ≥99.960%
  2 hr Contact Time Log10 ↓: ≥3.40
[6]; Cu 1650 ppm
  2 hr Contact Time Avg: <1.0E+01
  2 hr Contact Time Log10: <1.00
  2 hr Contact Time % ↓: ≥99.990%
  2 hr Contact Time Log10 ↓: ≥4.00
[7]
  2 hr Contact Time Avg: 1.0E+00
  2 hr Contact Time Log10: 0.00
[7]; relative to uncoated substrate
  2 hr Contact Time % ↓: 99.9964%
  2 hr Contact Time Log10 ↓: 4.45
[8]
  2 hr Contact Time Avg: 6.6E+01
  2 hr Contact Time Log10: 1.82
[8]; relative to uncoated substrate
  2 hr Contact Time % ↓: 99.9287%
  2 hr Contact Time Log10 ↓: 3.15
[2]; 167 ppm Cu
  antifungal test pass/fail: fails
[2]; 333 ppm Cu
  antifungal test pass/fail: passes
[2]; Cu level 167 ppm, no Quat
  Avg Rating: 7.7
[2]; Cu level 333 ppm, no Quat
  Avg Rating: 9.3

## N,N-Didecyl-N,N-dimethylammonium carbonate/bicarbonate [reference compound]
[2]; [14]
  Avg Rating: 3.3

## alkyl (50% C14, 10% C16, 40% C12) dimethyl benzyl ammonium chloride [Quat]
[9]
  2 hr Contact Time Avg: 1.4E+02
  2 hr Contact Time Log10: 2.16
[10]
  2 hr Contact Time Avg: 2.9E+05
  2 hr Contact Time Log10: 5.46
[11]
  2 hr Contact Time Avg: <1.5E+02
  2 hr Contact Time Log10: <2.19
[12]; Dry Abraded
  2 hr Contact Time Avg: 1.0E+2
  2 hr Contact Time Log10: 2.01
  2 hr Contact Time % ↓: 99.6285%
  2 hr Contact Time Log10 ↓: 2.43
[12]; NaOCl Abraded
  2 hr Contact Time Avg: 1.4E+0
  2 hr Contact Time Log10: 0.16
  2 hr Contact Time % ↓: 99.9994%
  2 hr Contact Time Log10 ↓: 4.28
[12]; Quat Abraded
  2 hr Contact Time Avg: 1.1E+2
  2 hr Contact Time Log10: 2.06
  2 hr Contact Time % ↓: 99.5831%
  2 hr Contact Time Log10 ↓: 2.38
[12]; Unexposed
  2 hr Contact Time Avg: 1.7E+3
  2 hr Contact Time Log10: 3.23
  2 hr Contact Time % ↓: 93.8340%
  2 hr Contact Time Log10 ↓: 1.21
[13]; Dry Abraded
  2 hr Contact Time Avg: 1.0E+0
  2 hr Contact Time Log10: 0.00
  2 hr Contact Time % ↓: 99.9990%
  2 hr Contact Time Log10 ↓: 5.00
[13]; NaOCl Abraded
  2 hr Contact Time Avg: 1.0E+0
  2 hr Contact Time Log10: 0.00
  2 hr Contact Time % ↓: 99.9990%
  2 hr Contact Time Log10 ↓: 5.00
[13]; Unexposed
  2 hr Contact Time Avg: 1.0E+0
  2 hr Contact Time Log10: 0.00
  2 hr Contact Time % ↓: 99.9990%
  2 hr Contact Time Log10 ↓: 5.00
